{"source": "patent US20260049088A1", "about": "“TRICYCLIC HETEROCYCLIC DERIVATIVES, COMPOSITIONS AND USES THEREOF” (Danatlas Pharmaceuticals Co., Ltd., priority 2023, published 2026)", "target": "T1, hPARG (Homo sapiens, UniProt Q86W56)", "T1 construct": "made in house; host or cells: E. coli", "T1 sequence (Q86W56 whole entry)": "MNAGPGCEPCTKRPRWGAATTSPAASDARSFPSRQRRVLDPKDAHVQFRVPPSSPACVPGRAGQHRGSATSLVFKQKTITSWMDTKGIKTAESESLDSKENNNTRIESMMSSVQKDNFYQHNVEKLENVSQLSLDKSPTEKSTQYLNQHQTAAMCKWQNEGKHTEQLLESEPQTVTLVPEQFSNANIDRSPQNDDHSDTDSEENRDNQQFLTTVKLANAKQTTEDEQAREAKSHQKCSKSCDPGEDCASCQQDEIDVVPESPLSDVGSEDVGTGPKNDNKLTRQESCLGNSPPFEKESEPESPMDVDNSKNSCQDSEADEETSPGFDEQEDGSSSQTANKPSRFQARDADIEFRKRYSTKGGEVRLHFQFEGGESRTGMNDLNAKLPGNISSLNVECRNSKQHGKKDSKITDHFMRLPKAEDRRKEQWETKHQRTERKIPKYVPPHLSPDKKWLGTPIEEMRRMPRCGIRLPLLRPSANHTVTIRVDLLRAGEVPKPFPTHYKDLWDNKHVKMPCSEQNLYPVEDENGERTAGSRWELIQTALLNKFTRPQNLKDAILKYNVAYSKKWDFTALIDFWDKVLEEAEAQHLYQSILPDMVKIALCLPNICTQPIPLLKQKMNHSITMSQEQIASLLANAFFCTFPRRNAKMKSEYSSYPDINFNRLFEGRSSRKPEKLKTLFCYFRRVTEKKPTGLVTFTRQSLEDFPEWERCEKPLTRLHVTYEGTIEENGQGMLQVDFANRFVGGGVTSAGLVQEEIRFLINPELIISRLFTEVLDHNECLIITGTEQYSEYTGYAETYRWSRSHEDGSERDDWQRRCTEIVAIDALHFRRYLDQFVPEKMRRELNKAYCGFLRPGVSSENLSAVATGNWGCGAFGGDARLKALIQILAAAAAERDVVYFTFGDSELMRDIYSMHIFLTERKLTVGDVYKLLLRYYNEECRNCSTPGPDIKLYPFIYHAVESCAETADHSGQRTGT", "assay": "PARG enzymatic activity assay (HTRF)", "type": "biochemical", "settings": "C-terminal His6-tag hPARG 65 pM, biotinylated-NAD ribosylated PARP1 substrate 8 nM", "how_it_was_run": "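His6-tagged hPARG from E. coli (65 pM final) preincubated 60 min RT with compound (10-point 4-fold dilution), then 8 nM biotinylated NAD-ribosylated PARP1 added for 10 min RT in Tris pH 7.4 buffer with EDTA, EGTA, DTT, KCl. HTRF detection (Eu-streptavidin/anti-His XL665, 620/665 nm); IC50 from 4-parameter fit against DMSO and no-enzyme controls.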"}
{"smiles": "N#CC1(NS(=O)(=O)c2ccc3c4c(NCCN5CCOCC5)ncnc4n(-c4nnc(C(F)F)s4)c3c2)CC1", "note": "[Example 16, N-(1-Cyanocyclopropyl)-9-(5-(difluoromethyl)-1,3,4-thiadiazol-2-yl)-4-((2-morpholinoethyl)amino)-9H-pyrimido[4,5-b]indole-7-sulfonamide]", "values": [{"measurement": "IC50", "value": "≤ 100", "unit": "nM"}]}
{"smiles": "CN1CCOCC1COc1ncnc2c1c1ccc(S(=O)(=O)NC3(C#N)CC3)cc1n2-c1nnc(C(F)F)s1", "note": "(centres unmarked) [Example 90, N-(1-Cyanocyclopropyl)-9-(5-(difluoromethyl)-1,3,4-thiadiazol-2-yl)-4-((4-methylmorpholin-3-yl)methoxy)-9H-pyrimido[4,5-b]indole-7-sulfonamide]", "values": [{"measurement": "IC50", "value": "100 to 1000", "unit": "nM"}]}
{"smiles": "CC(C)(O)C#Cc1ncnc2c1c1ccc(S(=O)(=O)NC3(C#N)CC3)cc1n2-c1nnc(C(F)F)s1", "note": "[Example 88, N-(1-Cyanocyclopropyl)-9-(5-(difluoromethyl)-1,3,4-thiadiazol-2-yl)-4-(3-hydroxy-3-methylbut-1-yn-1-yl)-9H-pyrimido[4,5-b]indole-7-sulfonamide]", "values": [{"measurement": "IC50", "value": "≤ 100", "unit": "nM"}]}
{"smiles": "N#CC1(NS(=O)(=O)c2ccc3c4c(NCC5COCCO5)ncnc4n(-c4nnc(C(F)F)s4)c3c2)CC1", "note": "(centres unmarked) [Example 79, 4-(((1,4-Dioxan-2-yl)methyl)amino)-N-(1-cyanocyclopropyl)-9-(5-(difluoromethyl)-1,3,4-thiadiazol-2-yl)-9H-pyrimido[4,5-b]indole-7-sulfonamide]", "values": [{"measurement": "IC50", "value": "≤ 100", "unit": "nM"}]}
{"smiles": "N#CC1(NS(=O)(=O)c2ccc3c4c(OCCN5CCCS5(=O)=O)ncnc4n(-c4nnc(C(F)F)s4)c3c2)CC1", "note": "[Example 91, N-(1-Cyanocyclopropyl)-9-(5-(difluoromethyl)-1,3,4-thiadiazol-2-yl)-4-(2-(1,1-dioxidoisothiazolidin-2-yl)ethoxy)-9H-pyrimido[4,5-b]indole-7-sulfonamide]", "values": [{"measurement": "IC50", "value": "≤ 100", "unit": "nM"}]}
{"smiles": "N#CC1(NS(=O)(=O)c2ccc3c4c(N5CCn6cnnc6C5)ncnc4n(-c4nnc(C(F)F)s4)c3c2)CC1", "note": "[Example 46, N-(1-Cyanocyclopropyl)-9-(5-(difluoromethyl)-1,3,4-thiadiazol-2-yl)-4-(5,6-dihydro-[1,2,4]triazolo[4,3-a]pyrazin-7(8H)-yl)-9H-pyrimido[4,5-b]indole-7-sulfonamide]", "values": [{"measurement": "IC50", "value": "≤ 100", "unit": "nM"}]}
{"smiles": "N#CC1(NS(=O)(=O)c2ccc3c4c(OCCCCN5CCOCC5)ncnc4n(-c4nnc(C(F)F)s4)c3c2)CC1", "note": "[Example 3, N-(1-Cyanocyclopropyl)-9-(5-(difluoromethyl)-1,3,4-thiadiazol-2-yl)-4-(4-morpholinobutoxy)-9H-pyrimido[4,5-b]indole-7-sulfonamide]", "values": [{"measurement": "IC50", "value": "≤ 100", "unit": "nM"}]}
{"smiles": "N#CC1(NS(=O)(=O)c2ccc3c4c(N5CCn6ncnc6C5)ncnc4n(-c4nnc(C(F)F)s4)c3c2)CC1", "note": "[Example 49, N-(1-Cyanocyclopropyl)-9-(5-(difluoromethyl)-1,3,4-thiadiazol-2-yl)-4-(5,6-dihydro-[1,2,4]triazolo[1,5-a]pyrazin-7(8H)-yl)-9H-pyrimido[4,5-b]indole-7-sulfonamide]", "values": [{"measurement": "IC50", "value": "≤ 100", "unit": "nM"}]}
{"smiles": "N#CC1(NS(=O)(=O)c2ccc3c4c(CCCN5CCOCC5)ncnc4n(-c4nnc(C(F)F)s4)c3c2)CC1", "note": "[Example 87, N-(1-Cyanocyclopropyl)-9-(5-(difluoromethyl)-1,3,4-thiadiazol-2-yl)-4-(3-morpholinopropyl)-9H-pyrimido[4,5-b]indole-7-sulfonamide]", "values": [{"measurement": "IC50", "value": "≤ 100", "unit": "nM"}]}
{"smiles": "N#CC1(NS(=O)(=O)c2ccc3c4c(OCCCN5CCOCC5)ncnc4n(-c4nnc(C(F)F)s4)c3c2)CC1", "note": "[Example 2, N-(1-Cyanocyclopropyl)-9-(5-(difluoromethyl)-1,3,4-thiadiazol-2-yl)-4-(3-morpholinopropoxy)-9H-pyrimido[4,5-b]indole-7-sulfonamide]", "values": [{"measurement": "IC50", "value": "≤ 100", "unit": "nM"}]}
{"smiles": "N#CC1(NS(=O)(=O)c2ccc3c4c(OCC5CCOC5)ncnc4n(-c4nnc(C(F)F)s4)c3c2)CC1", "note": "(centres unmarked) [Example 9, N-(1-Cyanocyclopropyl)-9-(5-(difluoromethyl)-1,3,4-thiadiazol-2-yl)-4-((tetrahydrofuran-3-yl)methoxy)-9H-pyrimido[4,5-b]indole-7-sulfonamide]", "values": [{"measurement": "IC50", "value": "≤ 100", "unit": "nM"}]}
{"smiles": "CCSc1ncnc2c1c1ccc(S(=O)(=O)NC3(C#N)CC3)cc1n2-c1nnc(C(F)F)s1", "note": "[Example 26, N-(1-Cyanocyclopropyl)-9-(5-(difluoromethyl)-1,3,4-thiadiazol-2-yl)-4-(ethylthio)-9H-pyrimido[4,5-b]indole-7-sulfonamide]", "values": [{"measurement": "IC50", "value": "> 1000", "unit": "nM"}]}
{"smiles": "CN(CC1(C#N)CC1)c1ncnc2c1c1ccc(S(=O)(=O)NC3(C#N)CC3)cc1n2-c1nnc(C(F)F)s1", "note": "[Example 75, N-(1-Cyanocyclopropyl)-4-(((1-cyanocyclopropyl)methyl)(methyl)amino)-9-(5-(difluoromethyl)-1,3,4-thiadiazol-2-yl)-9H-pyrimido[4,5-b]indole-7-sulfonamide]", "values": [{"measurement": "IC50", "value": "≤ 100", "unit": "nM"}]}
{"smiles": "CN(Cc1ccncc1)c1ncnc2c1c1ccc(S(=O)(=O)NC3(C#N)CC3)cc1n2-c1nnc(C(F)F)s1", "note": "[Example 21, N-(1-Cyanocyclopropyl)-9-(5-(difluoromethyl)-1,3,4-thiadiazol-2-yl)-4-(methyl(pyridin-4-ylmethyl)amino)-9H-pyrimido[4,5-b]indole-7-sulfonamide]", "values": [{"measurement": "IC50", "value": "≤ 100", "unit": "nM"}]}
{"smiles": "CN(C[C@@H]1COCCN1C)c1ncnc2c1c1ccc(S(=O)(=O)NC3(C#N)CC3)cc1n2-c1nnc(C(F)F)s1", "note": "[Example 65, (R)-N-(1-Cyanocyclopropyl)-9-(5-(difluoromethyl)-1,3,4-thiadiazol-2-yl)-4-(methyl((4-methylmorpholin-3-yl)methyl)amino)-9H-pyrimido[4,5-b]indole-7-sulfonamide]", "values": [{"measurement": "IC50", "value": "≤ 100", "unit": "nM"}]}
{"smiles": "CN(CCN1CCC(F)(F)CC1)c1ncnc2c1c1ccc(S(=O)(=O)NC3(C#N)CC3)cc1n2-c1nnc(C(F)F)s1", "note": "[Example 77, N-(1-Cyanocyclopropyl)-9-(5-(difluoromethyl)-1,3,4-thiadiazol-2-yl)-4-((2-(4,4-difluoropiperidin-1-yl)ethyl)(methyl)amino)-9H-pyrimido[4,5-b]indole-7-sulfonamide]", "values": [{"measurement": "IC50", "value": "100 to 1000", "unit": "nM"}]}
{"smiles": "N#CC1(NS(=O)(=O)c2ccc3c4c(O[C@H]5CCOC5)ncnc4n(-c4nnc(C(F)F)s4)c3c2)CC1", "note": "[Example 7, (S)-N-(1-Cyanocyclopropyl)-9-(5-(difluoromethyl)-1,3,4-thiadiazol-2-yl)-4-((tetrahydrofuran-3-yl)oxy)-9H-pyrimido[4,5-b]indole-7-sulfonamide]", "values": [{"measurement": "IC50", "value": "≤ 100", "unit": "nM"}]}
{"smiles": "CCN(CC)[C@H]1CCN(c2ncnc3c2c2ccc(S(=O)(=O)NC4(C#N)CC4)cc2n3-c2nnc(C(F)F)s2)C[C@H]1F", "note": "[Example 34, N-(1-Cyanocyclopropyl)-4-((3R,4S)-4-(diethylamino)-3-fluoropiperidin-1-yl)-9-(5-(difluoromethyl)-1,3,4-thiadiazol-2-yl)-9H-pyrimido[4,5-b]indole-7-sulfonamide]", "values": [{"measurement": "IC50", "value": "≤ 100", "unit": "nM"}]}
{"smiles": "CCN(CC)CCN(C)c1ncnc2c1c1ccc(S(=O)(=O)NC3(C#N)CC3)cc1n2-c1nnc(C(F)F)s1", "note": "[Example 15, N-(1-Cyanocyclopropyl)-4-((2-(diethylamino)ethyl)(methyl)amino)-9-(5-(difluoromethyl)-1,3,4-thiadiazol-2-yl)-9H-pyrimido[4,5-b]indole-7-sulfonamide]", "values": [{"measurement": "IC50", "value": "≤ 100", "unit": "nM"}]}
{"smiles": "CN(C)c1ncnc2c1c1ccc(S(=O)(=O)NC3(C#N)CC3)cc1n2-c1nnc(C(F)F)s1", "note": "[Example 14, N-(1-Cyanocyclopropyl)-9-(5-(difluoromethyl)-1,3,4-thiadiazol-2-yl)-4-(dimethylamino)-9H-pyrimido[4,5-b]indole-7-sulfonamide]", "values": [{"measurement": "IC50", "value": "≤ 100", "unit": "nM"}]}
